{
  "source": "patent US20250352518A1",
  "about": "“A BENZIMIDAZOLE COMPOUND WITH ANTIHELMINTHIC ACTIVITY FOR USE IN REVERSING, ARRESTING OR SLOWING DOWN CELLULAR AGEING IN A VERTEBRATE SUBJECT” (RAVAN BIO LIMITED, priority 2022, published 2025)",
  "key": {"[1]": {"tested_on": "post-confluent NHEK cells", "assay": "Growth of re-cultured post-confluent (cell-cell contact growth arrested) NHEK's", "format": "cell-based, human", "conditions": "for concentration causing optimal cell growth: post-confluent NHEK", "source_text": "Neonatal human epidermal foreskin keratinocytes (NHEKs) were used to test the ability of compounds to reverse, arrest or slow down cellular ageing. These cells typically undergo approximately 35 cell divisions before the Hayflick limit is reached but they can be induced to undergo premature senescence and, what has been understood to be, irreversible growth arrest earlier than this by induction of cell-cell contact growth inhibition when cultured at high cell density/to confluence (Poumay & Pittelkow 1995 J Inv Dermatol 104, p 271-276). The inventors were thus inspired to culture post-confluent cells and assess the effect of test compounds on the growth, telomere loss and secretion of inflammatory factors by such cells. An experimental schematic is provided as FIG. 1. 1.1 Culture of Early Passage NHEK's in the Presence and Absence of y27632 Pooled donor neonatal NHEK's (Cat No C-12005, Lot No 456Z001.1, PromoCell GmBH), serum-free PromoCell Keratinocyte Growth Medium 2 (KSFM, Cat No C20011. Lot No 472M197), CaCl2) (Lot No 471055) and Supplements (Lot No 472M013) were all obtained from PromoCell GmBH. NHEK's were thawed directly into a single T75 in 20 mls of complete KSFM (CaCl2 & Supplements), incubated over night at 37° C., 5% CO2 and the medium changed the following day. After 3 days the cells were 80% confluent and were passaged (Ist) using 0.05% Trypsin+EDTA (Gibco) into ×2 T75 flasks at a split ratio of 1:4. After overnight incubation at 37° C., 5% CO2, the cultures were at 30% confluence and 10 μM Y27632 (Cat No 688000, Lot No 2884132, Merck) was added to one of the flasks. […] Fresh T75 flasks were seeded with 5.0×10^5 cells from each in their respective medium. […] Fresh T75 flasks were seeded, as described previously, and also 1.2×10^4 NHEK cells/well were seeded into 24 well plates, incubated overnight to allow cell attachment, and the following subsequently added to separate wells: • A. NHEK in complete KSFM • B. NHEK+Y27632 in complete KSFM • C. Y27632 treated NHEK transferred to complete KSFM (Y27632 Removed) • D. NHEK transferred to complete KSFM+500 nM Tadalafil • E. NHEK transferred to complete KSFM+750 nM Tadalafil • F. NHEK transferred to complete KSFM+1000 nM Tadalafil • G. NHEK transferred to complete KSFM+1250 nM Tadalafil • H. NHEK transferred to complete KSFM+50 nM Fenbendazole • I. NHEK transferred to complete KSFM+100 nM Fenbendazole • J. NHEK transferred to complete KSFM+150 nM Fenbendazole • K. NHEK transferred to complete KSFM+200 nM Fenbendazole All drugs were added 24 hours after seeding. […] FIG. 2B is an example of the appearance of post-confluent cells.\nPost-confluent NHEK's (FIG. 2B) were subsequently passaged (4th) into a fresh 24 well plate using a split ratio of 1 in 4 in 2 mls of fresh complete KSFM. These were left overnight to attach and the same compounds added (as shown in A-K of 1.1) followed by incubation for a further 24 hours and subsequently photographed."}, "[2]": {"assay": "Canine case studies: age-related pathologies and tumour observations", "format": "in vivo, dog", "protocol": "In 2017, a […] (D.O.B Jan. 5, 2008) female Lhasa Apso/Jack Russell/Shih Tzu cross-breed (confirmed by genetic breed analysis: DNA-My-Dog) with a body mass of 9 Kg, was treated with 0.6 gm/day of 22.2% Fenbendazole (Panacur® granules) which was given orally for 3 consecutive days/week for 1 month and this cycle was repeated every 3rd month giving 4 cycles/annum providing a total of 16×1 month treatment cycles spread over a period of 4 yrs up to the present day.\nIn 2017, a 4 yr old Jack Russell/Poodle/Maltese cross-breed (Confirmed by genetic breed analysis: DNA-My-Dog) with a body mass of 9.2 Kg was treated with 1.0 gm/day of 22.2% Fenbendazole Panacur® granules for 3 days per week and 4 days without. The dosing schedule of 3 days with, 4 days without treatment per week was continued for 3 months after which the dose was reduced to 0.6 gm/day of Panacur® and treatment alternated between 1 month with and 1 month without for 19 months providing a total of 11×1 month treatment cycles over the whole time period. After this, treatment was discontinued for 2 years and 5 months up to 12 May 2022 when a cheek swab was taken for analysis of biological age and this was repeated 5 months later on the 30 Sep. 2022.\nThe initial reason for treating this animal was that it had been diagnosed with an anal sac adenocarcinoma and, at the time, it was decided to explore the use of Fenbendazole as an alternative treatment. […] Subject C2B's birth date was May 2014 giving a chronological age of 8 yrs which was verified by microchip implantation date using the Petlog database. Following the outlined treatment with Fenbendazole, in April 2022, a cheek epithelium swab was sent to DNA-My-Dog for assessment of breed composition and biological age by analysis of breed-specific telomere length. The result, returned on the 12 May 2022, reported a biological age of 1 yr old indicating a reduction in biological age of 7 yrs. which is equivalent to ˜90% reduction in biological age. […] After a further gap of 5 months without treatment, on the 30 Sep. […] However, unlike subject C2A, no treatment was given during this period so the most likely explanation is that the efficacy time-limit of the initial treatment has been exceeded."}},
  "data": [
    {"smiles": "COC(=O)Nc1nc2ccc(Sc3ccccc3)cc2[nH]1", "note": "[Fenbendazole, methyl 5-(phenylthio)-2-benzimidazole carbamate]", "values": [
      {"measurement": "continued growth of post-confluent NHEK's (phase contrast)", "setting": "[1]; passage 4, 24 hours with compound, 10 μM Y27632, 500-1250 nM Tadalafil, 50-200 nM Fenbendazole, FIG. 3", "result": "all exhibited cell growth"},
      {"measurement": "concentration causing optimal cell growth", "setting": "[1]; cultured for a further 24 hrs, FIG. 4", "result": "100 to 150", "unit": "nM"},
      {"measurement": "concentration causing optimal cell growth", "setting": "[1]; passage 4, 24 hours, FIG. 3", "result": "100 to 150", "unit": "nM"},
      {"measurement": "body weight and physical activity", "setting": "[2]; dog C2A, during 4 yr treatment", "result": "significant weight-loss and increased physical activity"},
      {"measurement": "growth of teeth", "setting": "[2]; dog C2A, during 4 yr treatment", "result": "activation of new growth of teeth"},
      {"measurement": "skin conditions / subcutaneous lesions", "setting": "[2]; dog C2A, during 4 yr treatment", "result": "normalization of skin and regression of subcutaneous lipoma like lesions"},
      {"measurement": "persistence of anti-ageing effects after treatment is discontinued", "setting": "[2]; dog C2B", "result": "at least 2 years"},
      {"measurement": "visible signs of ageing", "setting": "[2]; dog C2B", "result": "does not show any visible signs of ageing"},
      {"measurement": "anal sac adenocarcinoma tumour", "setting": "[2]; dog C2B, during treatment", "result": "regressed"}
    ]}
  ]
}
